Where two headings read alike, the source gives them in different places.
How the values were obtained:
Experiment in all cases: Fluorescence anisotropy binding of BOFP to FtsZ
Details in all cases: for Kd: 50 mM Tris-HCl (pH 7.6), 50 mM KCl
[1] = molecular target: T1, Enterococcus faecium FtsZ (EfmFtsZ) (Enterococcus faecium, UniProt Q3Y2I1)
T1 sequence (Q3Y2I1 1-413): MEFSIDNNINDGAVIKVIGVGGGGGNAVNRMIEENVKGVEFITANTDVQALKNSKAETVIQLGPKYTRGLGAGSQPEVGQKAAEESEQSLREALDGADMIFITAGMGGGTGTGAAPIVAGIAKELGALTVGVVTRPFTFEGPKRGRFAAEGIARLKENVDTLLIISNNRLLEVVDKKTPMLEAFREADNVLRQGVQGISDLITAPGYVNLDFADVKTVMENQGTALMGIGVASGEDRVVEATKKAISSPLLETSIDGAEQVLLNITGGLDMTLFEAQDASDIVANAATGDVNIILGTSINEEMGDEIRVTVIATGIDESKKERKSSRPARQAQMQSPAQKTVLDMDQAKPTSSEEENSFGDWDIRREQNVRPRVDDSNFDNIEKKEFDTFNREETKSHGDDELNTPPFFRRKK
Description: (§1) Fluorescence anisotropy assay for determining the affinities and thermodynamics associated with the binding of BOFP to FtsZ proteins. Fluorescence anisotropy experiments were performed using an AVIV model ATF105 spectrofluorometer at 15, 25, or 37° C. In these experiments, bandwidths were set to 4 nm in both the excitation and emission directions, with the excitation and emission wavelengths being set at 488 nm and 510 nm, respectively. BOFP (0.1 μM) was titrated with increasing concentrations (ranging from 0 to 12 μM) of FtsZ in 120 μL of buffer containing 50 mM Tris-HCl (pH 7.6) and 50 mM KCl. After each protein addition, the samples were equilibrated for 3 minutes, whereupon the fluorescence anisotropy was measured.
(§2) [formula] In this equation, r0 is the anisotropy of the protein-free compound, r∞ is the anisotropy of the compound in the presence of an infinite concentration of FtsZ, [C]tot is the total concentration of the compound, and [P]tot is the total concentration of protein with each addition. These analyses yielded the equilibrium dissociation constant (Kd) for each binding reaction.
(§3) The binding free energy (ΔG) at temperature T was derived from the corresponding Kd value determined at T using the following relationship:
(§4) [formula] The binding enthalpy (ΔH) and entropy (ΔS) were derived from linear fits of the ln(1/Kd) vs. 1/T plots shown in FIGS. 3f and 5e using the following relationship:
(§5) A quartz ultra-micro cell (Hellma) with a 2×5 mm aperture and a 15 mm center height was used for all measurements. The pathlengths in the excitation and emissions directions were 1 and 0.2 cm, respectively. All steady-state anisotropy experiments were conducted in at least triplicate, with the reported anisotropies reflecting the average values.

[2] = molecular target: Klebsiella pneumoniae FtsZ (KpFtsZ) (Klebsiella pneumoniae, UniProt A0A0H3GRR0)
Chain of Klebsiella pneumoniae FtsZ (KpFtsZ) (A0A0H3GRR0 entry or part of it): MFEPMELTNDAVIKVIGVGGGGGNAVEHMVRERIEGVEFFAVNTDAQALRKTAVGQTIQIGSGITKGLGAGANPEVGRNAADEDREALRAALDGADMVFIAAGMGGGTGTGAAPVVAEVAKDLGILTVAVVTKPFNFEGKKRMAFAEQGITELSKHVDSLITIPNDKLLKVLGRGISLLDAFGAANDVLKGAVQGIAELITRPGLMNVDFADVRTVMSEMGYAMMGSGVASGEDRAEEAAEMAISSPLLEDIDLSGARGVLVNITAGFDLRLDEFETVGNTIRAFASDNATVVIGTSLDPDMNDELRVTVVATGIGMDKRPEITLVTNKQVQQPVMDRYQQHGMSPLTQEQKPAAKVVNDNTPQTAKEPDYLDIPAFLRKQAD
Description: as §1, §2, §3, §4, §5

[3] = molecular target: T2, Streptococcus agalactiae FtsZ (SagFtsZ) (Streptococcus agalactiae, UniProt Q8E183)
T2 sequence (Q8E183 1-426): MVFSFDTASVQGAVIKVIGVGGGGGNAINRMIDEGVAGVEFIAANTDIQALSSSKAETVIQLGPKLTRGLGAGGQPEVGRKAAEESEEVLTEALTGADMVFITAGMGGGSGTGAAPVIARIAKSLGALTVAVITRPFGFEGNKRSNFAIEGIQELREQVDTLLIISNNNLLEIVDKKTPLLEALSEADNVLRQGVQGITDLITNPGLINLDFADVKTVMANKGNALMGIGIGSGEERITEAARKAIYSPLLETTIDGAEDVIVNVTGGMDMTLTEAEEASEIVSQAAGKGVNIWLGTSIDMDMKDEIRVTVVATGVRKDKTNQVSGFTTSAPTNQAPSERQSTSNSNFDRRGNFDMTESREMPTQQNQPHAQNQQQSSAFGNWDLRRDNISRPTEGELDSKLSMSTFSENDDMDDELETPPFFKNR
Description: as §1, §2, §3, §4, §5

[4] = molecular target: T3, Streptococcus pneumoniae FtsZ (SpnFtsZ) (Streptococcus pneumoniae, UniProt A0A0H2ZNE0)
T3 sequence (A0A0H2ZNE0 1-419): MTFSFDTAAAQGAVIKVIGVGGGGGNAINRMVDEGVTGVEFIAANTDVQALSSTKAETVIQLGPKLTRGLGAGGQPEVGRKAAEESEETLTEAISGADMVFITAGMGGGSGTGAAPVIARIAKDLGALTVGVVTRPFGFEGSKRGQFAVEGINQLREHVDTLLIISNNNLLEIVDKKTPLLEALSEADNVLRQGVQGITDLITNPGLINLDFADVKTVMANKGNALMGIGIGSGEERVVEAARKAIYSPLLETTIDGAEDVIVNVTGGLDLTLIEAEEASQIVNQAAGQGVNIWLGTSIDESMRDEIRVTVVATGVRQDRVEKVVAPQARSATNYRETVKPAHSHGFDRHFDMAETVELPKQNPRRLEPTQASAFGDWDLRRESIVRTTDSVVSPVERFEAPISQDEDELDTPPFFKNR
Description: as §1, §2, §3, §4, §5

[5] = linear fit of ln(1/Kd) vs. 1/T, Eq. 3

For `CC1=CC(C)=[N+]2C1=Cc1ccc(CCC(=O)OCC(Oc3ccc(F)c(C(N)=O)c3F)c3nc(-c4ccc(C(F)(F)F)cc4)c(Br)o3)n1[B-]2(F)F` (centres unmarked) [BOFP, 2-(5-bromo-4-(4-(trifluoromethyl)phenyl)-oxazol-2-yl)-2-(3-carbamoyl-2,4-difluorophenoxy)ethyl 3-(5,5-difluoro-7,9-dimethyl-5H-5λ^4,6λ^4-dipyrrolo[1,2-c:2′,1′-f][1,3,2]diazaborinin-3-yl)propanoate], the “ΔS contribution to the observed ΔG of binding” value [1] was greater than 50%, the Kd ([1]; 15° C., read-out: Kd −15° C.) was 2500 ± 140 nM and the Kd ([1]; 25° C., read-out: Kd −25° C.) was 2620 ± 80 nM. For the same molecule, the Kd ([1]; 37° C., read-out: Kd −37° C.) was 3140 ± 220 nM, the ΔH [1, 5] was -1.9 ± 0.6 kcal/mol and the ΔS [1, 5] was “+19.2 ± 1.9 cal/mol · K”. The “ΔH contribution to the observed ΔG of binding” value [2] was greater than 50%, the Kd ([2]; 15° C., read-out: Kd −15° C.) was 420 ± 50 nM and the Kd ([2]; 25° C., read-out: Kd −25° C.) was 580 ± 40 nM. For the same molecule, the Kd ([2]; 37° C., read-out: Kd −37° C.) was 820 ± 40 nM, the ΔG ([2]; T = 310K (37° C.), Eq. 2) was -8.6 ± 0.1 kcal/mol and the ΔH [2, 5] was -5.4 ± 0.1 kcal/mol. The ΔS [2, 5] was “+10.5 ± 0.1 cal/mol · K”, the “ΔH contribution to the observed ΔG of binding” value [3] was greater than 50% and the Kd ([3]; 15° C., read-out: Kd −15° C.) was 620 ± 50 nM. It also gave a Kd ([3]; 25° C., read-out: Kd −25° C.) of 1020 ± 90 nM, a Kd ([3]; 37° C., read-out: Kd −37° C.) of 1310 ± 40 nM and a ΔH [3, 5] of -6.6 ± 0.6 kcal/mol. For the same molecule, the ΔS [3, 5] was “+5.4 ± 2.0 cal/mol · K”, the “ΔS contribution to the observed ΔG of binding” value [4] was greater than 50% and the Kd ([4]; 15° C., read-out: Kd −15° C.) was 3020 ± 300 nM. For the same molecule, the Kd ([4]; 25° C., read-out: Kd −25° C.) was 3490 ± 250 nM, the Kd ([4]; 37° C., read-out: Kd −37° C.) was 3810 ± 690 nM and the ΔG ([4]; T = 310K (37° C.), Eq. 2) was -7.7 ± 0.1 kcal/mol. The ΔH [4, 5] was -1.9 ± 0.3 kcal/mol and the ΔS [4, 5] was “+18.7 ± 1.2 cal/mol · K”.

— US12061201B2, “Fluorescent probes for the visualization of FtsZ in gram-positive and gram-negative bacterial pathogens” (Rutgers, The State University of New Jersey, priority 2019, dated 2024)
